Assay results taken from PubChem BioAssay (NCI).
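Test compounds were applied to cells in 96-well plates for 48 hours at 5 doses. GI50 = concentration required for 50% inhibition of growth. TGI: total growth inhibition.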

Tests used:
Assay in all cases: NCI tumour cell line growth inhibition, 48 h
OVCAR-8 ovarian = tested on: OVCAR-8 ovarian
HT29 colon = tested on: HT29 colon
NCI-H522 lung = tested on: NCI-H522 lung
MDA-MB-435 = tested on: MDA-MB-435
T-47D breast = tested on: T-47D breast
U251 CNS = tested on: U251 CNS
A549 NSCLC = tested on: A549 NSCLC
HS 578T breast = tested on: HS 578T breast
DU-145 prostate = tested on: DU-145 prostate
COLO 205 colon = tested on: COLO 205 colon

| SMILES | GI50 (OVCAR-8 ovarian) [µM] | TGI (OVCAR-8 ovarian) [µM] | GI50 (HT29 colon) [µM] | TGI (HT29 colon) [µM] | GI50 (NCI-H522 lung) [µM] | TGI (NCI-H522 lung) [µM] | GI50 (MDA-MB-435) [µM] | TGI (MDA-MB-435) [µM] | GI50 (T-47D breast) [µM] | TGI (T-47D breast) [µM] | GI50 (U251 CNS) [µM] | TGI (U251 CNS) [µM] | GI50 (A549 NSCLC) [µM] | TGI (A549 NSCLC) [µM] | GI50 (HS 578T breast) [µM] | TGI (HS 578T breast) [µM] | GI50 (DU-145 prostate) [µM] | TGI (DU-145 prostate) [µM] | TGI (COLO 205 colon) [µM] | GI50 (COLO 205 colon) [µM] |
| --- | --- | --- | --- | --- | --- | --- | --- | --- | --- | --- | --- | --- | --- | --- | --- | --- | --- | --- | --- | --- |
| O=C(CSc1nc2ccc([N+](=O)[O-])cc2[nH]1)Nc1ccc([N+](=O)[O-])cc1 | 2.79 | > 35.7 | 2.82 | 10.6 | 1.69 | 9.01 | 2.66 | 12.7 | 1.59 | 12.9 | 2.62 | 15.5 | 2.94 | 14.2 | 2.31 | 10.2 | 3.51 | 15.6 |  |  |
| CC(=O)Nc1ccc(S(=O)(=O)N/N=C/c2cc(I)cc([N+](=O)[O-])c2O)cc1 |  | > 100 |  | > 100 |  |  |  |  |  |  |  | > 100 |  | > 100 |  |  |  |  | > 100 |  |
| CC(=O)OC1C(COC(N)=O)OC(n2c(-c3ccc(C)cc3)cc(-c3ccccc3)c(C#N)c2=O)C(OC(C)=O)C1OC(C)=O (stereo unspecified) |  | > 100 |  | > 100 |  | > 100 |  |  |  |  |  | > 100 |  | > 100 |  |  |  |  | > 100 |  |
| C=CCC1=C2CCCCC2CCC1=O (stereo unspecified) |  | > 100 |  |  |  | > 100 |  |  |  |  |  | > 100 |  | > 100 |  |  |  |  | > 100 |  |
| O=C(Cc1c(C(=O)Nc2ccccc2)sc(C(=O)Nc2ccccc2)c1CC(=O)Nc1ccccc1)Nc1ccccc1 |  | > 100 |  | > 100 |  | > 100 |  |  |  |  |  | > 100 |  | > 100 |  |  |  |  | > 100 |  |
| OCC(O)COc1ccc(F)cc1 (stereo unspecified) |  | > 100 |  | > 100 |  | > 100 |  |  |  |  |  | > 100 |  | > 100 |  |  |  |  | > 100 |  |
| CC1=CC=C2C(C)(C)CC[C@@H]3OC(=O)[C@H]1[C@]23C |  | > 100 |  | > 100 |  | > 100 |  |  |  |  |  | > 100 |  | > 100 |  |  |  |  | > 100 |  |
| Cc1ccc(S(=O)OC2c3ccccc3Cc3ccccc32)cc1 (stereo unspecified) |  | 28.9 |  | > 100 |  | 27.1 |  |  |  |  |  | 78.5 |  | 87.2 |  |  |  |  | 31.5 |  |
| COC(=O)CCC(=O)C(CC(=O)OC)C(=O)CCC(=O)NCCc1ccccc1 (stereo unspecified) |  | > 100 |  | > 100 |  | > 100 |  |  |  |  |  | > 100 |  | > 100 |  |  |  |  | > 100 |  |
| O=C(O)COc1ccc2c3c1C(=O)CCC3CO2 (stereo unspecified) |  | > 100 |  | > 100 |  | > 100 |  |  |  |  |  | > 100 |  | > 100 |  |  |  |  | > 100 |  |
| O=C(O)c1ccc(NCn2nc(-c3ccccc3O)oc2=S)cc1O | > 100 | > 100 | > 100 | > 100 | > 100 | > 100 | > 100 | > 100 | > 100 | > 100 | 78.1 | > 100 | > 100 | > 100 | > 100 | > 100 |  |  | > 100 | 42.6 |
| CNC(=O)N(CCCC(NC(C)=O)C(=O)NCc1ccccc1)Cc1ccccc1 (stereo unspecified) |  | > 100 |  | > 100 |  | > 100 |  |  |  |  |  | > 100 |  | > 100 |  |  |  |  | > 100 |  |
| Cc1cc2c(=O)cc(-c3ccc(C(=O)O)cc3)oc2c(C(N)=O)c1C |  | > 100 |  | > 100 |  | > 100 |  |  |  |  |  | > 100 |  | > 100 |  |  |  |  | > 100 |  |
| O=C1C2=C(c3ccccc31)C(c1ccccc1Cl)NC(=S)N2 (stereo unspecified) |  | > 100 |  | > 100 |  | > 100 |  |  |  |  |  | > 100 |  | > 100 |  |  |  |  | > 100 |  |
